The values below come from ChEMBL document CHEMBL1159073, “Inhibition of IKK-beta: a new development in the mechanism of the anti-obesity effects of PTP1B inhibitors SA18 and SA32” (Bioorg Med Chem Lett, 2010).

The structures appear in SMILES notation. Activity calls are given as the source filed them. The calls are words filed in the database; no cut-off is given here.

Assay [1] deals with 3T3-L1. As to the kind of experiment: Inhibition of IkappaB-alpha degradation in LPS-stimulated mouse 3T3L1 cells at 50 uM pretreated 30 mins before LPS containing cytokine mixture challenge measured after 60 mins by Western blotting. The assay is classed as functional, cell-based.
Assay [2] concerns Mus musculus. As to the kind of experiment: Antiobesity activity in high fat diet-induced obese C57BL/6J Jms Slc mouse model assessed as blood triglyceride level administered through diet for 28 days (reference value: 63+/-32). The assay is classed as functional.
Assay [3] relates to Mus musculus. As to the kind of experiment: Antiobesity activity in high fat diet-induced obese C57BL/6J Jms Slc mouse model assessed as retroperitoneal adipose tissue weight administered through diet for 28 days (reference value: 0.51+/-0.11). The assay is classed as functional.
The subject of assay [4] is Mus musculus. The assay is described as follows: Antiobesity activity in high fat diet-induced obese C57BL/6J Jms Slc mouse model assessed as blood total cholesterol level administered through diet for 28 days (reference value: 141+/-10). The assay is classed as functional.
The species entered for assay [5] is Mus musculus. The assay is described as follows: Inhibition of IkappaB-alpha degradation in LPS-stimulated mouse […] cells at 50 uM pretreated 30 mins before LPS containing cytokine mixture challenge measured by Western blotting. The assay is classed as functional. (In general: A western blot detects proteins with antibodies after separation by electrophoresis.)

The subject of assay [6] is 3T3-L1. The assay is described as follows: Inhibition of IkappaB-alpha degradation in LPS-stimulated mouse 3T3L1 cells at 50 uM pretreated 30 mins before LPS containing cytokine mixture challenge measured after 30 mins by Western blotting. The assay is classed as functional, cell-based.
The subject of assay [7] is Mus musculus. As to the kind of experiment: Antiobesity activity in high fat diet-induced obese C57BL/6J Jms Slc mouse model assessed as epididymal adipose tissue weight administered through diet for 28 days (reference value: 1.8+/-0.49). Type of assay: functional.
Assay [8] deals with Mus musculus. As to the kind of experiment: Antiobesity activity in high fat diet-induced obese C57BL/6J Jms Slc mouse model assessed as blood nonesterified free fatty acid level administered through diet for 28 days (reference value: 0.35+/-0.09). Type of assay: functional.
Assay [9] relates to Mus musculus. The assay is described as follows: Antiobesity activity in high fat diet-induced obese C57BL/6J Jms Slc mouse model assessed as change in body weight administered through diet for 28 days (reference value: 33.4+/-2.8). Type of assay: functional.
Assay [10] deals with T1, Inhibitor of nuclear factor kappa-B kinase subunit beta (Homo sapiens, UniProt O14920).
T1 sequence (O14920 whole entry): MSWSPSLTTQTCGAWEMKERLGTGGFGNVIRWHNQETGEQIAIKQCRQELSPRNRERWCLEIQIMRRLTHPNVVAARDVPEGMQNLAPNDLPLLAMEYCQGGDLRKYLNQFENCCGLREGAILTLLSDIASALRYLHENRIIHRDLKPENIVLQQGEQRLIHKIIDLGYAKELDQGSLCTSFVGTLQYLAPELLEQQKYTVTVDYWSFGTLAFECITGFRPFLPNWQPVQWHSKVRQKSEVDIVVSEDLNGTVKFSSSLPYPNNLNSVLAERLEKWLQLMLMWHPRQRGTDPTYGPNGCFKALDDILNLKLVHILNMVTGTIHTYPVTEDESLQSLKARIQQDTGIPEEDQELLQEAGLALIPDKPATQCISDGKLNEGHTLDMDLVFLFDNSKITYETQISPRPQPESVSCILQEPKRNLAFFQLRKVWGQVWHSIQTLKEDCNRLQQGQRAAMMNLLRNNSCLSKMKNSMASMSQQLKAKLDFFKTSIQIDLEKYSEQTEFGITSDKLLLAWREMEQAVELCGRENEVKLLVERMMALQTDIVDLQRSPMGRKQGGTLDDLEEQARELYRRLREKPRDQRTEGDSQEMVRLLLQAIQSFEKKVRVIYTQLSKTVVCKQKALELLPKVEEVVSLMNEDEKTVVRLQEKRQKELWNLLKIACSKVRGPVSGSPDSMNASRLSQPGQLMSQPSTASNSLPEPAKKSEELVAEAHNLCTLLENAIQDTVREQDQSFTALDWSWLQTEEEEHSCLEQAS
As to the kind of experiment: Inhibition of IKK-beta by tome resolved fluorescence assay.

Regarding `O=C(O)c1cc(-c2ccccc2)cc(Cc2cc(-c3ccccc3)cc(C(=O)O)c2O)c1O`, the inhibition result in the assay with 3T3-L1 [1], in the assay filed under Mus musculus [5] and with 3T3-L1 [6] was “Active” each time. In addition, the Activity in the assay with Mus musculus [2] amounted to 48 mg/dL; in the assay on Mus musculus [3], 0.26 g; in the assay on Mus musculus [4], 133 mg/dL; with Mus musculus [7], 0.83 g; in the assay on Mus musculus [8] it was 0.14 mEq/L; with Mus musculus [9] it was 28.9 g.

For the compound `O=C(O)c1cc(Cc2cc(C(=O)O)c(O)c(-c3ccccc3)c2)cc(-c2ccccc2)c1O`, the inhibition result with 3T3-L1 [1], in the assay listed under Mus musculus [5] and in the assay on 3T3-L1 [6] was “Active” throughout. Besides, the Activity with Mus musculus [2] was found to be 42 mg/dL; in the assay on Mus musculus [3], 0.26 g; in the assay on Mus musculus [4], 129 mg/dL; with Mus musculus [7], 0.86 g; in the assay with Mus musculus [8], 0.24 mEq/L; in the assay on Mus musculus [9], 29.2 g.

Usually IC50 stands for the concentration at which inhibition is half-maximal. Read a high IC50 as weaker potency. Turning to `O=C(Nc1cc(Cl)cc2c1[nH]c1cnccc12)c1cccnc1`, in assay [10], the half-maximal inhibitory concentration (IC50) was 150 nM.
